{"source": "patent US20120083522A1", "about": "“MODULATION OF INFLAMMATORY RESPONSES BY FACTOR XI” (Isis Pharmaceuitcals, inc., priority 2009, published 2012)", "assay_type_in_all_cases": "in vivo", "key": {"[1]": {"test": "Tolerability in CD1 mice: kidney function (Example 25)", "details": "50 mg/kg s.c. twice per week for 6 weeks, plasma"}, "[2]": {"test": "Tolerability in CD1 mice: liver function (Example 25)", "details": "50 mg/kg s.c. twice per week for 6 weeks, plasma"}, "[3]": {"test": "Tolerability in CD1 mice: body and organ weight (Example 25)", "details": "50 mg/kg s.c. twice per week for 6 weeks"}, "[4]": {"test": "Tolerability in CD1 mice: hematology assays (Example 25)", "set-up": "RBC / WBC / Neutrophil / Lymphocyte / Platelets: unit not given here", "details": "50 mg/kg s.c. twice per week for 6 weeks, blood"}}, "note": "In the oligonucleotide strings, read from the 5' end, every base follows the letter of its sugar. An asterisk marks phosphorothioate; unmarked linkages are phosphodiester. Other units and linkages are bracketed, terminal groups are in braces. A string of capitals states the bases alone. e = 2'-O-(2-methoxyethyl) (MOE); [5mC] = 5-methylcytosine; d = 2'-deoxy (DNA)", "data": [{"substance": "ISIS 445503: microwalk gapmer of Table 51 (antisense eG*e[5mC]*eA*eT*eT*eG*dG*dT*dG*d[5mC]*dA*d[5mC]*dA*dG*eT*eT*eT*e[5mC]*eT*eG)", "values": [{"measurement": "BUN", "setting": "[1]", "value": 29, "unit": "mg/dL"}, {"measurement": "ALT", "setting": "[2]", "value": 1314, "unit": "IU/L"}, {"measurement": "AST", "setting": "[2]", "value": 852, "unit": "IU/L"}, {"measurement": "Albumin", "setting": "[2]", "value": 3.4, "unit": "mg/dL"}, {"measurement": "Bilirubin", "setting": "[2]", "value": 0.28, "unit": "mg/dL"}, {"measurement": "Body weight (increase over PBS control weight before start of treatment)", "setting": "[3]", "value": 9, "unit": "g"}, {"measurement": "Kidney weight as percentage of body weight", "setting": "[3]; end of study", "value": 1.4, "unit": "%"}, {"measurement": "Liver weight as percentage of body weight", "setting": "[3]; end of study", "value": 8, "unit": "%"}, {"measurement": "Spleen weight as percentage of body weight", "setting": "[3]; end of study", "value": 0.6, "unit": "%"}, {"measurement": "HCT", "setting": "[4]", "value": 46, "unit": "%"}, {"measurement": "Hemoglobin", "setting": "[4]", "value": 13.6, "unit": "g/dL"}, {"measurement": "Lymphocyte", "setting": "[4]", "value": 6436}, {"measurement": "Neutrophil", "setting": "[4]", "value": 1475}, {"measurement": "Platelets", "setting": "[4]", "value": 309}, {"measurement": "RBC", "setting": "[4]", "value": 9.2}, {"measurement": "WBC", "setting": "[4]", "value": 8}]}]}
